According to ChEMBL document CHEMBL3991601, “The target landscape of clinical kinase drugs” (Science, 2017):
The source made the active and inactive calls. For most assays here, no stated cut-off is given here; in the data, actives have a measured Kd and inactives only a lower limit.

Tests used:
[1] = target: T1, Beta-adrenergic receptor kinase 1 (Homo sapiens, UniProt P25098)
T1 sequence (P25098 whole entry): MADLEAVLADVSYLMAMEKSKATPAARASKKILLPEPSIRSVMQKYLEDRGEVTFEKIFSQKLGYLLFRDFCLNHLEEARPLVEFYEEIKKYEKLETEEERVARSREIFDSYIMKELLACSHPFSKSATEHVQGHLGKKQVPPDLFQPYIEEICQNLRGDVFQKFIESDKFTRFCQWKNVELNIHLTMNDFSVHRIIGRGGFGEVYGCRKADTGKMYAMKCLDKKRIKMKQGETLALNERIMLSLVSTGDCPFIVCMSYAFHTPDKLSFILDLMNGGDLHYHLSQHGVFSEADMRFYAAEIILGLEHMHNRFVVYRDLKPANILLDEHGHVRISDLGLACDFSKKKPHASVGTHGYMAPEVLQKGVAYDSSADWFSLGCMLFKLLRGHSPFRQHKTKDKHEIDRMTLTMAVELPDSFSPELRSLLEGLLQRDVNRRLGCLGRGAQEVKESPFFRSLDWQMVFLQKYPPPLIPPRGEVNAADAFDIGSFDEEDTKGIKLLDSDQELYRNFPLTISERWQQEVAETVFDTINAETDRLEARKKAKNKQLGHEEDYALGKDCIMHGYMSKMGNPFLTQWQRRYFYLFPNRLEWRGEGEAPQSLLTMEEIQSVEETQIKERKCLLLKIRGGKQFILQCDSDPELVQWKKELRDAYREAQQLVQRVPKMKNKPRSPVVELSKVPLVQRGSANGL

[2] = target: Bone morphogenetic protein receptor type-1B (Homo sapiens, UniProt O00238)
[3] = target: Tyrosine-protein kinase BTK (Homo sapiens, UniProt Q06187)
[4] = target: Cyclin-dependent kinase 2 (Homo sapiens, UniProt P24941)
[5] = target: Cyclin-dependent kinase 5 (Homo sapiens, UniProt Q00535)
Cyclin-dependent kinase 5, sequence (Q00535 whole entry): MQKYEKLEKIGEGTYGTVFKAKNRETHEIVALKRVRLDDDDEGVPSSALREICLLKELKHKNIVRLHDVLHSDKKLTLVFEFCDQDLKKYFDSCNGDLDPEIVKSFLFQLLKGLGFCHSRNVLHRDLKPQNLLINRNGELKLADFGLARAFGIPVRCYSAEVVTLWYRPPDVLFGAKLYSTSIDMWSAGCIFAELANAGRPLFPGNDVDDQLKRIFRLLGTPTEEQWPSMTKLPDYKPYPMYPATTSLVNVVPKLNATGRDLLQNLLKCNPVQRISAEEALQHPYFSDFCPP

[6] = target: Casein kinase II subunit alpha' (Homo sapiens, UniProt P19784)
[7] = target: Epidermal growth factor receptor (Homo sapiens, UniProt P00533)
[8] = target: Glycogen synthase kinase-3 beta (Homo sapiens, UniProt P49841)
[9] = target: Mitogen-activated protein kinase kinase kinase kinase 1 (Homo sapiens, UniProt Q92918)
[10] = target: Mitogen-activated protein kinase kinase kinase kinase 5 (Homo sapiens, UniProt Q9Y4K4)
Mitogen-activated protein kinase kinase kinase kinase 5, sequence (Q9Y4K4 whole entry): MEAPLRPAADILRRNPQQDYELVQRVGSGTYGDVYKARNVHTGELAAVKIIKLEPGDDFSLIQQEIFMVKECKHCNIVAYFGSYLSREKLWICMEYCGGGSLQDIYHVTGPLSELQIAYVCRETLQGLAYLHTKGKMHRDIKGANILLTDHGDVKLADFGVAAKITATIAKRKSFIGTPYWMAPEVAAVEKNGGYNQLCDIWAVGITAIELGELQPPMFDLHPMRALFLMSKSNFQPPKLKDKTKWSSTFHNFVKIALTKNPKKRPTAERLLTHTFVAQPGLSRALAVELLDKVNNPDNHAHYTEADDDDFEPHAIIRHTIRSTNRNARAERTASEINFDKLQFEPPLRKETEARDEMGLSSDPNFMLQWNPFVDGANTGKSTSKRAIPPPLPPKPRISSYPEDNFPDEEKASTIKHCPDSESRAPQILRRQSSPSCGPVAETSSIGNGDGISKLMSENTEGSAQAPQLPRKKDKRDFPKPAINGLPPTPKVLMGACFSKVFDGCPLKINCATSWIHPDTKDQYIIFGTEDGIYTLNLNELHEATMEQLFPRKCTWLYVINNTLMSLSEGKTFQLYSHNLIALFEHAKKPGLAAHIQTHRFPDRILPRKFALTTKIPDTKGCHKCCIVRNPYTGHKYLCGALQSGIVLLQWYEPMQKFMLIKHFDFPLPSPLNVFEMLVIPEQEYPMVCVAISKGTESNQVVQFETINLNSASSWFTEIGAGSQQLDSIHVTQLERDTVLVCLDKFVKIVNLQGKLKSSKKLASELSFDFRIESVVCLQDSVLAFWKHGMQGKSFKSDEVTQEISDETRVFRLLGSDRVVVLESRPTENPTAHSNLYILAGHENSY

[11] = target: Mitogen-activated protein kinase 3 (Homo sapiens, UniProt P27361)
[12] = target: Mitogen-activated protein kinase 9 (Homo sapiens, UniProt P45984)
[13] = target: MAP kinase-activated protein kinase 2 (Homo sapiens, UniProt P49137)
Myosin-14 = Myosin-14 (Homo sapiens, UniProt Q7Z406)
Myosin-14, sequence (Q7Z406 whole entry): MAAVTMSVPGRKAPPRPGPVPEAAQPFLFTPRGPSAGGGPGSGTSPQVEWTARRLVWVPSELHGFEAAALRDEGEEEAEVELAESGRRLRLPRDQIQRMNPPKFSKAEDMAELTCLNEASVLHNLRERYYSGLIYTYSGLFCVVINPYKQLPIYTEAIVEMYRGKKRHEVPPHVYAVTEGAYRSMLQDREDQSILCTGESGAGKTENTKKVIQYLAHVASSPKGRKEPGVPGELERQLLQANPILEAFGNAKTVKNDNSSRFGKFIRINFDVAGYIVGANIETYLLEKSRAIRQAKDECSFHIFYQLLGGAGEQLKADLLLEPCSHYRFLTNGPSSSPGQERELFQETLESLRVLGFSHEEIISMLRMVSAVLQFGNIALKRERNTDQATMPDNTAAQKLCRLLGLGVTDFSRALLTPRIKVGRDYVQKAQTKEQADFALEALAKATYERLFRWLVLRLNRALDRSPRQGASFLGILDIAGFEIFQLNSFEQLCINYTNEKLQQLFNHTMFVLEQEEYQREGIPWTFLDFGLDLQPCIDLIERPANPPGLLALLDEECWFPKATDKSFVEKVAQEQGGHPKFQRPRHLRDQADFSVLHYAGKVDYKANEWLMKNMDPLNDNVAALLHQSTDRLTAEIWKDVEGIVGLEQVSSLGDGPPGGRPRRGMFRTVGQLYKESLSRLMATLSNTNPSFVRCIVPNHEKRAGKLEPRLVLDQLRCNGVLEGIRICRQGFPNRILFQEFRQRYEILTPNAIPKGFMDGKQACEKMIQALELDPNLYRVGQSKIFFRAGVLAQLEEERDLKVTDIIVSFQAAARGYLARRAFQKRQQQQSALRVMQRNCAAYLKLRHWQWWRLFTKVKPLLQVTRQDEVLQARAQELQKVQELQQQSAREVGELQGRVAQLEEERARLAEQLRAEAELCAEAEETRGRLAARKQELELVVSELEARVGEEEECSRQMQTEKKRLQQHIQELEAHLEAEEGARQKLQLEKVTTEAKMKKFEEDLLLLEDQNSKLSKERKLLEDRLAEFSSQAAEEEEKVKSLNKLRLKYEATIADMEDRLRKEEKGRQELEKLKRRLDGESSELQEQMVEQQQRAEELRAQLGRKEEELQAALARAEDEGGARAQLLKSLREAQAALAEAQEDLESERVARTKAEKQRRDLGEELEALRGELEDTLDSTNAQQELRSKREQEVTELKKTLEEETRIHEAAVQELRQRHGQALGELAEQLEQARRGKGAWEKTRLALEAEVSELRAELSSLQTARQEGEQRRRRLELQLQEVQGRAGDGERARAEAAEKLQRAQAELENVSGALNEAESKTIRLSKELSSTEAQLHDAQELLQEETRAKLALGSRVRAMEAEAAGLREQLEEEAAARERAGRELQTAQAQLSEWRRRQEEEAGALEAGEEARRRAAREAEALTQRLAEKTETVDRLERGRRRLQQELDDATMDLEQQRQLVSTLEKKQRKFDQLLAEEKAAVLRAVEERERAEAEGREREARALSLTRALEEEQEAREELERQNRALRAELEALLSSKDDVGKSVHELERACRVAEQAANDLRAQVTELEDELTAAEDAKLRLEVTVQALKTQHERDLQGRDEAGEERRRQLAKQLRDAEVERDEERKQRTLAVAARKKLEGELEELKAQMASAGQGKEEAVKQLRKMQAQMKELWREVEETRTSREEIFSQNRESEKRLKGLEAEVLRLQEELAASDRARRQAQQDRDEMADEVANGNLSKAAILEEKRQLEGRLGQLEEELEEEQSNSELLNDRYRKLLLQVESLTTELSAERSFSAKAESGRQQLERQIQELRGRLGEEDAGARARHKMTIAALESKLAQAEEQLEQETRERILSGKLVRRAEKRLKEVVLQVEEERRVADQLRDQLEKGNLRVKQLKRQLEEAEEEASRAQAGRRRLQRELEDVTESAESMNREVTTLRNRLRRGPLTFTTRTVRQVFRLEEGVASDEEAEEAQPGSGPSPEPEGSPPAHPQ

[14] = target: Serine/threonine-protein kinase PAK 4 (Homo sapiens, UniProt O96013)
Serine/threonine-protein kinase PAK 4, sequence (O96013 whole entry): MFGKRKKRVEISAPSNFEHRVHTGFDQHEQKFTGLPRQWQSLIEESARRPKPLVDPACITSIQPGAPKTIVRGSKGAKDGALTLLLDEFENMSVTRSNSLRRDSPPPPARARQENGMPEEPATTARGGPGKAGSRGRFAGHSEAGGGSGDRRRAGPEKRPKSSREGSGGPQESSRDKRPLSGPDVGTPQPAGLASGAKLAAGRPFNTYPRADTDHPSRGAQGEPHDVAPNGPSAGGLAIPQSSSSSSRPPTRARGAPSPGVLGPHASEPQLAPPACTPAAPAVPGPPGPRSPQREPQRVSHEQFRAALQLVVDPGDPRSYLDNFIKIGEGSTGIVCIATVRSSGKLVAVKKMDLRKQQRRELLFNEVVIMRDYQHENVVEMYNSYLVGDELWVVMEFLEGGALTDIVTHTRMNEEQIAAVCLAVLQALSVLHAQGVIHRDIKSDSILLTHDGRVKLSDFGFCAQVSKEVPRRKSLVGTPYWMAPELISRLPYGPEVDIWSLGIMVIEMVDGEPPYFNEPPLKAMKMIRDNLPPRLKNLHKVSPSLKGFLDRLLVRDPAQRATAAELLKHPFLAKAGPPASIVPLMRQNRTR

Rab-like protein 3 = target: T2, Rab-like protein 3 (Homo sapiens, UniProt Q5HYI8)
T2 sequence (Q5HYI8 whole entry): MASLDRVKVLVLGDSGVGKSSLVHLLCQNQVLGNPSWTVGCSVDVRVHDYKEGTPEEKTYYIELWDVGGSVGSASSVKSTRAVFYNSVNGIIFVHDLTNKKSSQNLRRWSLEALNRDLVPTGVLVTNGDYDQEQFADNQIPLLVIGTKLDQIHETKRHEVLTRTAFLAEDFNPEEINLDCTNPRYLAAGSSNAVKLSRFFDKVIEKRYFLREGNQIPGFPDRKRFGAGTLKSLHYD

[15] = target: Dual specificity testis-specific protein kinase 1 (Homo sapiens, UniProt Q15569)
[16] = target: TRAF2 and NCK-interacting protein kinase (Homo sapiens, UniProt Q9UKE5)
TRAF2 and NCK-interacting protein kinase, sequence (Q9UKE5 whole entry): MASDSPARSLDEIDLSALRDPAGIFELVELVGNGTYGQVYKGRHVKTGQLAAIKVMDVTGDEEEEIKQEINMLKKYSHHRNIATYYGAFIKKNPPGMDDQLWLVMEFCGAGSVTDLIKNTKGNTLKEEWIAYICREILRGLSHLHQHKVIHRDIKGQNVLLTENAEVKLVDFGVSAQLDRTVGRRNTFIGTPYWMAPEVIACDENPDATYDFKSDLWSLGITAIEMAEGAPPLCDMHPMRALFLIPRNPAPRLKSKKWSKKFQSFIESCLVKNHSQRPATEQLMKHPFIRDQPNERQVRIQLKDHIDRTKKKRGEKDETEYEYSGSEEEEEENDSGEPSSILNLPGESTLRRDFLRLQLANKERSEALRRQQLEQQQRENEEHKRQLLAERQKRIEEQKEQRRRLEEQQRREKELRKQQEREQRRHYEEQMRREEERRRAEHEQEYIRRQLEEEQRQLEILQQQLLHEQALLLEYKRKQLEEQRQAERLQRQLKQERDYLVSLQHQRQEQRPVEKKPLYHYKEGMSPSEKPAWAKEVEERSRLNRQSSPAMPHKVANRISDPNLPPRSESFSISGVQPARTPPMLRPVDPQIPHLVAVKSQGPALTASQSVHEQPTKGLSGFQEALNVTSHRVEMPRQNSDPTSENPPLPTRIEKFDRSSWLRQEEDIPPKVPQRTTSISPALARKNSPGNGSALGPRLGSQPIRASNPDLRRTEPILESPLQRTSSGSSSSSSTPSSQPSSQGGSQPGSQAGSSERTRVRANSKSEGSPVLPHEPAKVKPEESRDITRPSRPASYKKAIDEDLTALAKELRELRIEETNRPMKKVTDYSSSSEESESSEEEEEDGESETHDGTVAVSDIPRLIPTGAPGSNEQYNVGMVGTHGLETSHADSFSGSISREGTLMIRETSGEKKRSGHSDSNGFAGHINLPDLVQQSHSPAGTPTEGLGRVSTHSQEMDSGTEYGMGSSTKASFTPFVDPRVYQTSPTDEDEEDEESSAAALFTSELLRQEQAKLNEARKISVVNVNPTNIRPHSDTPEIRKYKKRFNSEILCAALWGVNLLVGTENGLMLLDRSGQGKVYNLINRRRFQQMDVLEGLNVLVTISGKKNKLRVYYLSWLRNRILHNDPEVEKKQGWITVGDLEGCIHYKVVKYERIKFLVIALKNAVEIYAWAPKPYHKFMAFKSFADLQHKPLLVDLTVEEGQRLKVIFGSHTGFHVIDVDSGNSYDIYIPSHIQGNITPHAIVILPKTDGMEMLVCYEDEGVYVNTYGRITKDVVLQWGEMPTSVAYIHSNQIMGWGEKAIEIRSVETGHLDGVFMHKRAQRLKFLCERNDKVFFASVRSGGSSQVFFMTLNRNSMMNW

[17] = target: T3, Non-receptor tyrosine-protein kinase TNK1 (Homo sapiens, UniProt Q13470)
T3 sequence (Q13470 whole entry): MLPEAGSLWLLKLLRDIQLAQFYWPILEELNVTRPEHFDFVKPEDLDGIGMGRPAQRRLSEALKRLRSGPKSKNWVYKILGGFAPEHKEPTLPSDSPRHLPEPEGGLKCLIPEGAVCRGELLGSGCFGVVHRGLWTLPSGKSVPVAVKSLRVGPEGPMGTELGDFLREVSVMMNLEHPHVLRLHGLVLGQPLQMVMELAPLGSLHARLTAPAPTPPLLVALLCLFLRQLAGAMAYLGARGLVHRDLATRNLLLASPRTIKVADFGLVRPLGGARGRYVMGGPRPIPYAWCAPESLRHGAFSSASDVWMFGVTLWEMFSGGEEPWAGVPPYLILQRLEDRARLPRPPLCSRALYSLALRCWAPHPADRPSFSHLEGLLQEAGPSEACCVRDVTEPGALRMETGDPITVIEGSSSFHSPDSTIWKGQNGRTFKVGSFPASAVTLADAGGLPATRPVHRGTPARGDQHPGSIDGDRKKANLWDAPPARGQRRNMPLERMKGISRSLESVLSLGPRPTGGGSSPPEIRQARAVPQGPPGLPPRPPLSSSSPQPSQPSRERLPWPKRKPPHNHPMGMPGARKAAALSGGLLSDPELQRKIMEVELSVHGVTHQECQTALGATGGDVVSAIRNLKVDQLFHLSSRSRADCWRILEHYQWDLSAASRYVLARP

Structure (SMILES) | Kd [1] | Kd [2] | Kd [3] | Kd [4] | Kd [5] | Kd [6] | Kd [7] | Kd [8] | Kd [9] | Kd [10] | Kd [11] | Kd [12] | Kd [13] | Kd (Myosin-14) | Kd [14] | Kd (Rab-like protein 3) | Kd [15] | Kd [16] | Kd [17]
C[C@H]1CNCCCN1S(=O)(=O)c1cccc2cncc(F)c12 | > 30 µM (inactive) | > 30 µM (inactive) | > 30 µM (inactive) | > 30 µM (inactive) | > 30 µM (inactive) | > 30 µM (inactive) | > 30 µM (inactive) | > 30 µM (inactive) | > 30 µM (inactive) | > 30 µM (inactive) | > 30 µM (inactive) | > 30 µM (inactive) | > 30 µM (inactive) | > 30 µM (inactive) | > 30 µM (inactive) | > 30 µM (inactive) | > 30 µM (inactive) | > 30 µM (inactive) | > 30 µM (inactive)
CCNC(=O)C#Cc1ccc2c(c1)NC(=O)/C2=C(\Nc1ccc(CN(C)C)cc1)c1ccccc1 | > 30 µM (inactive) | > 30 µM (inactive) | 0.588 µM (active) | > 30 µM (inactive) | > 30 µM (inactive) | > 30 µM (inactive) | > 30 µM (inactive) | > 30 µM (inactive) | 0.875 µM (active) | 1.36 µM (active) | > 30 µM (inactive) | > 30 µM (inactive) | > 30 µM (inactive) | > 30 µM (inactive) | > 30 µM (inactive) | > 30 µM (inactive) | > 30 µM (inactive) | > 30 µM (inactive) | > 30 µM (inactive)
C=CC(=O)N1CCC[C@H](n2c(=O)n(-c3ccc(Oc4ccccc4)cc3)c3c(N)ncnc32)C1 | > 30 µM (inactive) | > 30 µM (inactive) | 0.004 µM (active) | > 30 µM (inactive) | > 30 µM (inactive) | > 30 µM (inactive) | 0.019 µM (active) | > 30 µM (inactive) | > 30 µM (inactive) | > 30 µM (inactive) | > 30 µM (inactive) | > 30 µM (inactive) | > 30 µM (inactive) | > 30 µM (inactive) | > 30 µM (inactive) | > 30 µM (inactive) | > 30 µM (inactive) | > 30 µM (inactive) | > 30 µM (inactive)
COCc1c(-c2ccc(NC(=O)Nc3cc(C(F)(F)F)ccc3F)c(F)c2)c2c(N)ncnn2c1CN1CCOCC1 | > 30 µM (inactive) | > 30 µM (inactive) | > 30 µM (inactive) | > 30 µM (inactive) | > 30 µM (inactive) | > 30 µM (inactive) | > 30 µM (inactive) | > 30 µM (inactive) | > 30 µM (inactive) | > 30 µM (inactive) | > 30 µM (inactive) | 1.51 µM (active) | > 30 µM (inactive) | > 30 µM (inactive) | > 30 µM (inactive) | > 30 µM (inactive) | > 30 µM (inactive) | > 30 µM (inactive) | 1.26 µM (active)
C=CC(=O)Nc1cc2c(Nc3ccc(F)c(Cl)c3)ncnc2cc1C#CC(C)(C)N1CCN(C)CC1 [AV-412 FREE BASE] | > 30 µM (inactive) | > 30 µM (inactive) | 0.345 µM (active) | > 30 µM (inactive) | > 30 µM (inactive) | > 30 µM (inactive) | 0.01 µM (active) | > 30 µM (inactive) | > 30 µM (inactive) | > 30 µM (inactive) | > 30 µM (inactive) | > 30 µM (inactive) | > 30 µM (inactive) |  | > 30 µM (inactive) | > 30 µM (inactive) | > 30 µM (inactive) | > 30 µM (inactive) | > 30 µM (inactive)
CO[C@H]1C[C@@H]2CC[C@@H](C)[C@@](O)(O2)C(=O)C(=O)N2CCCC[C@H]2C(=O)O[C@H]([C@H](C)C[C@@H]2CC[C@@H](O)[C@H](OC)C2)CC(=O)[C@H](C)/C=C(\C)[C@@H](O)[C@@H](OC)C(=O)[C@H](C)C[C@H](C)/C=C/C=C/C=C/1C [SIROLIMUS] | > 30 µM (inactive) | > 30 µM (inactive) | > 30 µM (inactive) | > 30 µM (inactive) | > 30 µM (inactive) | > 30 µM (inactive) | > 30 µM (inactive) | > 30 µM (inactive) | > 30 µM (inactive) | > 30 µM (inactive) | > 30 µM (inactive) | > 30 µM (inactive) | > 30 µM (inactive) | > 30 µM (inactive) | > 30 µM (inactive) |  | > 30 µM (inactive) | > 30 µM (inactive) | > 30 µM (inactive)

Other lines, results leading:

Kd [1] | Kd [2] | Kd [3] | Kd [4] | Kd [5] | Kd [6] | Kd [7] | Kd [8] | Kd [9] | Kd [10] | Kd [11] | Kd [12] | Kd [13] | Kd (Myosin-14) | Kd [14] | Kd (Rab-like protein 3) | Kd [15] | Kd [16] | Kd [17] | Structure (SMILES)
> 30 µM (inactive) | > 30 µM (inactive) | > 30 µM (inactive) | > 30 µM (inactive) | > 30 µM (inactive) | > 30 µM (inactive) | > 30 µM (inactive) | > 30 µM (inactive) | > 30 µM (inactive) | 1.71 µM (active) | > 30 µM (inactive) | > 30 µM (inactive) | 2.69 µM (active) | > 30 µM (inactive) | > 30 µM (inactive) | > 30 µM (inactive) | > 30 µM (inactive) | > 30 µM (inactive) | > 30 µM (inactive) | Cc1csc(-c2nnc(Nc3ccc(Oc4ncccc4-c4ccnc(N)n4)cc3)c3ccccc23)c1 [AMG-900]
> 30 µM (inactive) | > 30 µM (inactive) | > 30 µM (inactive) | > 30 µM (inactive) | > 30 µM (inactive) | > 30 µM (inactive) | > 30 µM (inactive) | > 30 µM (inactive) | > 30 µM (inactive) | > 30 µM (inactive) | > 30 µM (inactive) | > 30 µM (inactive) | > 30 µM (inactive) |  | > 30 µM (inactive) | > 30 µM (inactive) | > 30 µM (inactive) | > 30 µM (inactive) | > 30 µM (inactive) | COc1ccc(S(=O)(=O)N(C(C)=O)c2ccccc2/C=C/c2cc[n+]([O-])cc2)cc1 [HMN-214]
> 30 µM (inactive) |  | 15.8 µM | > 30 µM (inactive) | > 30 µM (inactive) | 2.44 µM (active) | > 30 µM (inactive) | > 30 µM (inactive) | 0.015 µM (active) | 0.551 µM (active) | > 30 µM (inactive) | > 30 µM (inactive) | > 30 µM (inactive) | > 30 µM (inactive) | 50.4 µM | > 30 µM (inactive) | > 30 µM (inactive) | 0.184 µM | 0.003 µM (active) | CC(C)c1cc(CNc2nc(Nc3cc(C4CC4)[nH]n3)cc(N3CCN(C)CC3)n2)on1 [XL-228]
